This data set has as its system soybean (Var. Clark). Description: greenhouse growth regulator test on soybean (Table I). In kind it is in vivo. To be noted: two weeks after application; for Injury (0-10): 0-10 scale, 0 = no effect, 10 = complete kill; for pest or weed control / pest or weed control at 2241.7 g/ha: Glycine max, foliar, 336 h, read-out: Height (% inhib.); for pest or weed control / pest or weed control at 2241.7 g/ha / Height (% inhib.): relative to control. From the text: Limited greenhouse experiments shown that there is promotion of lateral bud growth when compounds are applied at higher concentrations and earlier timings and an increase in soybean pod numbers at lower rates applied just prior to or at the flowering stage. […] Three parameters are reported in Table I to indicate the general spectrum of activity for each evaluated compound including the propensity for releasing lateral bud growth in soybeans. These are: (a) plant height measured as percent inhibition relative to the control; (b) the number of lateral buds per plant; and (c) phytotoxic injury on a scale of 0 to 10 (10 being maximum injury). Sampling compounds were evaluated in the greenhouse in a special growth regulator test. Four to five soybean seeds (Var. Clark) were planted in 4-inch pots with a humus-soil mixture. Two weeks after planting, two uniform plants were selected from each pot for treatment. The candidate compounds were dissolved in acetone-water (1:1), and applied as a foliar spray in a carrier volume of 50 gallons per acre, using a moving belt sprayer at a rate of 1/4, 1/2 and 2 lbs/acre. Six plants were used for each treatment. Two weeks after application, the number of laterals per plant, plant injury (0-10 scale; 0 = no effect, 10 = complete kill,) and the height of each plant were recorded. Untreated plants were used as controls.

Counter-ions that a name gives are not always drawn. Like-named read-outs stand apart in the source and are kept apart here.

Take `Clc1ccc(C=Nc2cc(Cl)cc(Cl)c2)cc1` [VII, 3,5-dichloro-N-(4-chlorobenzylidene)aniline]: the “No. Laterals per plant” value is, setting by setting: (1/2 lbs/acre foliar spray) 4; (1/4 lbs/acre foliar spray) 2; (2 lbs/acre foliar spray) 5. Moreover, the “Injury (0-10)” value is recorded as 0 (1/2 lbs/acre), 0 (1/4 lbs/acre) and 0 (2 lbs/acre). Moreover, for the setting “1/2 lbs/acre foliar spray”, the pest or weed control was determined as 9%. The pest or weed control at 2241.7 g/ha (2 lbs/acre foliar spray) was 13%.

With `CCOC=Nc1ccc(Cl)c(Cl)c1` [XVII, ethyl N-(3,4-dichlorophenyl)formimidate], the “No. Laterals per plant” value reads like this: (1/2 lbs/acre foliar spray) 0; (1/4 lbs/acre foliar spray) 2; (2 lbs/acre foliar spray) 4. In addition, the “Injury (0-10)” value came to 1 (1/2 lbs/acre), 2 (1/4 lbs/acre) and 6 (2 lbs/acre). In addition, the pest or weed control (1/4 lbs/acre foliar spray) stood at 24%. The pest or weed control at 2241.7 g/ha (2 lbs/acre foliar spray) worked out at 34%.

`Clc1ccc(N=Cc2c(Cl)cccc2Cl)cc1Cl` [XII, 3,4-dichloro-N-(2,6-dichlorobenzylidene)aniline]: the “No. Laterals per plant” value runs as follows: (1/2 lbs/acre foliar spray) 2; (1/4 lbs/acre foliar spray) 1; (2 lbs/acre foliar spray) 6. Also, the “Injury (0-10)” value (1/2 lbs/acre) is reported as 1, the “Injury (0-10)” value (1/4 lbs/acre) was 1 and the “Injury (0-10)” value (2 lbs/acre) is recorded as 1. Also, the pest or weed control (1/4 lbs/acre foliar spray) stood at 5%. Also, where the note is “2 lbs/acre foliar spray”, the pest or weed control at 2241.7 g/ha is 18%.

For the molecule `CCOC=Nc1cc(Cl)cc(Cl)c1` [XVI, Ethyl N-(3,5-dichlorophenyl)formimidate], the “No. Laterals per plant” value is given as 4 (1/2 lbs/acre foliar spray), 2 (1/4 lbs/acre foliar spray) and 5 (2 lbs/acre foliar spray). For the same molecule, the “Injury (0-10)” value runs as follows: (1/2 lbs/acre) 1; (1/4 lbs/acre) 1; (2 lbs/acre) 2. Also, the pest or weed control was found to be 2% (1/2 lbs/acre foliar spray) and 0% (1/4 lbs/acre foliar spray). Moreover, the pest or weed control at 2241.7 g/ha (2 lbs/acre foliar spray) came to 22%.

For the molecule `Clc1cccc(C=Nc2cc(Cl)cc(Cl)c2)c1` [VI, 3,5-dichloro-N-(3-chlorobenzylidene)aniline], the “No. Laterals per plant” value runs as follows: (1/2 lbs/acre foliar spray) 3; (1/4 lbs/acre foliar spray) 2; (2 lbs/acre foliar spray) 5. The “Injury (0-10)” value by setting is: (1/2 lbs/acre) 1; (1/4 lbs/acre) 2; (2 lbs/acre) 1. For the same molecule, the pest or weed control (1/2 lbs/acre foliar spray) was 21%. The pest or weed control at 2241.7 g/ha (2 lbs/acre foliar spray) turned out to be 13%.

In the case of `Clc1ccc(N=CNc2ccc(Cl)c(Cl)c2)cc1Cl` [XXI, n,n'-bis[3,4-dichlorophenyl]formamidine HCl], the “Height (% inhib.)” value reads like this: (1/2 lbs/acre foliar spray, HCl) 4 % inhib; (1/4 lbs/acre foliar spray, HCl) 0 % inhib; (2 lbs/acre foliar spray, HCl) 20 % inhib. Further, the “No. Laterals per plant” value came to 4 (1/2 lbs/acre foliar spray, HCl); 1 (1/4 lbs/acre foliar spray, HCl); 5 (2 lbs/acre foliar spray, HCl). The “Injury (0-10)” value reads like this: (1/2 lbs/acre, HCl) 1; (1/4 lbs/acre, HCl) 0.

As to `Clc1ccc(NCNc2ccc(Cl)c(Cl)c2)cc1Cl` [II, n,n'-bis[3,4-dichlorophenyl]methanediamine], the “No. Laterals per plant” value was 0 (1/2 lbs/acre foliar spray), 2 (1/4 lbs/acre foliar spray) and 5 (2 lbs/acre foliar spray). Moreover, the “Injury (0-10)” value by setting is: (1/2 lbs/acre) 2; (1/4 lbs/acre) 3; (2 lbs/acre) 2. In addition, the pest or weed control by setting is: (1/2 lbs/acre foliar spray) 15%; (1/4 lbs/acre foliar spray) 20%. The pest or weed control at 2241.7 g/ha (2 lbs/acre foliar spray) worked out at 7%.

As to `Cl.Clc1cc(Cl)cc(N=CNc2cc(Cl)cc(Cl)c2)c1` [XX, N,N'-Bis[3,5-dichlorophenyl]formamidine hydrochloride], the “No. Laterals per plant” value was 4 (1/2 lbs/acre foliar spray), 2 (1/4 lbs/acre foliar spray) and 6 (2 lbs/acre foliar spray). Further, the “Height (% inhib.)” value amounted to 19 % inhib (1/2 lbs/acre foliar spray), 10 % inhib (1/4 lbs/acre foliar spray) and 44 % inhib (2 lbs/acre foliar spray). For the same molecule, the “Injury (0-10)” value (1/2 lbs/acre) came to 2, the “Injury (0-10)” value (1/4 lbs/acre) was determined as 2 and the “Injury (0-10)” value (2 lbs/acre) worked out at 0.

`O=CNc1ccc(Cl)c(Cl)c1` [XIX, 3',4'-dichloroformanilide]: the “No. Laterals per plant” value runs as follows: (1/2 lbs/acre foliar spray) 0; (1/4 lbs/acre foliar spray) 5; (2 lbs/acre foliar spray) 4. Further, the “Injury (0-10)” value (1/2 lbs/acre) came out at 0, the “Injury (0-10)” value (1/4 lbs/acre) turned out to be 1 and the “Injury (0-10)” value (2 lbs/acre) is listed as 3. Besides, the pest or weed control by setting is: (1/2 lbs/acre foliar spray) 0%; (1/4 lbs/acre foliar spray) 2%. Further, the pest or weed control at 2241.7 g/ha (2 lbs/acre foliar spray) was 13%.

`Clc1ccc(N=Cc2ccccc2Cl)cc1Cl` [IX, 3,4-dichloro-N-(2-chlorobenzylidene)aniline]: the “No. Laterals per plant” value (1/2 lbs/acre foliar spray) worked out at 4, the “No. Laterals per plant” value (1/4 lbs/acre foliar spray) amounted to 0 and the “No. Laterals per plant” value (2 lbs/acre foliar spray) stood at 4. Further, the “Injury (0-10)” value (1/2 lbs/acre) stood at 0, the “Injury (0-10)” value (1/4 lbs/acre) amounted to 0 and the “Injury (0-10)” value (2 lbs/acre) was 2. Moreover, the pest or weed control runs as follows: (1/2 lbs/acre foliar spray) 23%; (1/4 lbs/acre foliar spray) 0%. Besides, under “2 lbs/acre foliar spray”, the pest or weed control at 2241.7 g/ha amounted to 12%.

Consider `CCOC(CC)=Nc1cc(Cl)cc(Cl)c1` [XXII, Ethyl N-(3,5-dichlorophenyl)propionimidate], for which the “No. Laterals per plant” value by setting is: (1/2 lbs/acre foliar spray) 3; (1/4 lbs/acre foliar spray) 1; (2 lbs/acre foliar spray) 3. In addition, the “Injury (0-10)” value reads like this: (1/2 lbs/acre) 1; (1/4 lbs/acre) 2; (2 lbs/acre) 1.

For `Clc1cccc(C=Nc2ccc(Cl)c(Cl)c2)c1` [X, 3,4-dichloro-N-(3-chlorobenzylidene)aniline], the “No. Laterals per plant” value reads like this: (1/2 lbs/acre foliar spray) 3; (1/4 lbs/acre foliar spray) 1; (2 lbs/acre foliar spray) 3. Besides, the “Injury (0-10)” value (1/2 lbs/acre) is reported as 1, the “Injury (0-10)” value (1/4 lbs/acre) is 0 and the “Injury (0-10)” value (2 lbs/acre) is 3. Moreover, the pest or weed control (1/2 lbs/acre foliar spray) amounted to 14% and the pest or weed control (1/4 lbs/acre foliar spray) is 9%. Moreover, the pest or weed control at 2241.7 g/ha (2 lbs/acre foliar spray) came out at 13%.

Regarding `Clc1ccc(N=CNc2ccc(Cl)c(Cl)c2)cc1Cl` [XV, n,n'-bis[3,4-dichlorophenyl]formamidine], the “No. Laterals per plant” value runs as follows: (1/2 lbs/acre foliar spray) 2; (1/4 lbs/acre foliar spray) 2; (2 lbs/acre foliar spray) 2. The “Height (% inhib.)” value came to 15 % inhib (1/2 lbs/acre foliar spray), 23 % inhib (1/4 lbs/acre foliar spray) and 4 % inhib (2 lbs/acre foliar spray). Besides, the “Injury (0-10)” value worked out at 2 (1/2 lbs/acre), 2 (1/4 lbs/acre) and 1 (2 lbs/acre).

For `Clc1cc(Cl)cc(N=CNc2cc(Cl)cc(Cl)c2)c1` [XIV, N,N'-Bis[3,5-dichlorophenyl]formamidine], the “No. Laterals per plant” value reads like this: (1/2 lbs/acre foliar spray) 3; (1/4 lbs/acre foliar spray) 1; (2 lbs/acre foliar spray) 4. Moreover, the “Injury (0-10)” value is listed as 3 (1/2 lbs/acre), 2 (1/4 lbs/acre) and 0 (2 lbs/acre). Also, the “Height (% inhib.)” value (2 lbs/acre foliar spray) is 4 % inhib. The pest or weed control is, setting by setting: (1/2 lbs/acre foliar spray) 11%; (1/4 lbs/acre foliar spray) 13%.

Source of the values: patent US4119667A, “Haloaniline derivatives as plant growth modifiers” (Rohm and Haas Company, priority 1974, dated 1978).
